According to BindingDB's records for doi:10.1016/j.bmcl.2015.05.099 (Mercer University, 2015):

Tests used:
[1] = biological target: T1, Albumin (Homo sapiens, UniProt P02768); assay: Binding affinity to human serum albumin with excitation at 285 nm after 30 mins by fluorescence spectrophotometric analysis
[2] = biological target: T1, Albumin; assay: Binding affinity to human serum albumin with excitation at 295 nm after 30 mins by fluorescence spectrophotometric analysis

T1 sequence (P02768 whole entry): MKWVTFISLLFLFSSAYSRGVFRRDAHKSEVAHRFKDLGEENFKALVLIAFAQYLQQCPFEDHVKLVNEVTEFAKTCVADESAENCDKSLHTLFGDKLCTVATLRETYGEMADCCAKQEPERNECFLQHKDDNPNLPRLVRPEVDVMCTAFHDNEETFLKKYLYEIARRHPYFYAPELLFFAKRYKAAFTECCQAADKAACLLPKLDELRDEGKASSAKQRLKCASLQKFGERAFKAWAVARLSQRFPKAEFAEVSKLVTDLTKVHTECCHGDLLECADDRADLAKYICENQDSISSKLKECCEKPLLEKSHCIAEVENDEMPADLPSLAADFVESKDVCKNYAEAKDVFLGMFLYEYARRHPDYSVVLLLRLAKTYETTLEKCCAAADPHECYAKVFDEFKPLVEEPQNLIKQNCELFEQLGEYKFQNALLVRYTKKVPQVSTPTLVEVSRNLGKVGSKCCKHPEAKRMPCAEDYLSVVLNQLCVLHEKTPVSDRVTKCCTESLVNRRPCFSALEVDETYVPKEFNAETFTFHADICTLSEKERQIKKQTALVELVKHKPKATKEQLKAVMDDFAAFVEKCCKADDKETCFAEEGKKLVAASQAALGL

Kd [1] [µM]	Kd [2] [µM]	Structure (SMILES)
1.6	1.9	C=C(C)[C@@H]1CC[C@]2(C(=O)[O-])CC[C@]3(C)[C@H](CC[C@@H]4[C@@]5(C)CC[C@H](O)C(C)(C)[C@@H]5CC[C@]43C)[C@@H]12.CCCCCCCCCCCC[N+](C)(C)Cc1ccccc1
47	37	C=C(C)[C@@H]1CC[C@]2(C(=O)N[C@H](C)C(=O)O)CC[C@]3(C)[C@H](CC[C@@H]4[C@@]5(C)CC[C@H](O)C(C)(C)[C@@H]5CC[C@]43C)[C@@H]12
19	19	C=C(C)[C@@H]1CC[C@]2(C(=O)N[C@H](C)C(=O)[O-])CC[C@]3(C)[C@H](CC[C@@H]4[C@@]5(C)CC[C@H](O)C(C)(C)[C@@H]5CC[C@]43C)[C@@H]12.CCCCCCCCCCCC[N+](C)(C)Cc1ccccc1
